Numbered stars: 1 amine (or outer) side, 2 acyl side, 3 side chain; on linkers, the order of the positions; unused ones are H or OH. Bridge positions count the residues as written; N and C are the ends. Square brackets hold non-standard residues; d marks the D form. Peptide text beside a SMILES is read from it. * marks the point of attachment. Benzoyl(4-NO2) = O=C(c1ccc([N+](=O)[O-])cc1)*; Pro(5R-Ph) = O=C(O)[C@@H]1CC[C@H](c2ccccc2)N1; Benzoyl(3,5-(OH)2) = O=C(c1cc(O)cc(O)c1)*; Benzoyl(4-CF3) = O=C(c1ccc(C(F)(F)F)cc1)*; Benzoyl(4-Ph) = O=C(c1ccc(-c2ccccc2)cc1)*; Phenylacetyl(4-Cl) = O=C(Cc1ccc(Cl)cc1)*; NH(CH2CH2O)2CH2CH2NH2 = NCCOCCOCCN*; dBta = N[C@H](Cc1csc2ccccc12)C(=O)O; Cyclohexylacetyl = O=C(CC1CCCCC1)*; Hydrocinnamoyl = O=C(CCc1ccccc1)*; NMeR = CN[C@@H](CCCNC(=N)N)C(=O)O; dCit = NC(=O)NCCC[C@@H](N)C(=O)O; hArg = N=C(N)NCCCC[C@H](N)C(=O)O; NMeD = CN[C@@H](CC(=O)O)C(=O)O; Agp = N=C(N)NC[C@H](N)C(=O)O; Suc = O=C(CCC(=O)[*:2])[*:1]; Isobutyryl = CC(C)C(=O)*; Pentanoyl = CCCCC(=O)*; X3 = Cc1nc(C(=O)*)cs1; βAla = NCCC(=O)O; Sar = CNCC(=O)O

Chain of αvβ3 integrin (P06756 31-889 limits assumed): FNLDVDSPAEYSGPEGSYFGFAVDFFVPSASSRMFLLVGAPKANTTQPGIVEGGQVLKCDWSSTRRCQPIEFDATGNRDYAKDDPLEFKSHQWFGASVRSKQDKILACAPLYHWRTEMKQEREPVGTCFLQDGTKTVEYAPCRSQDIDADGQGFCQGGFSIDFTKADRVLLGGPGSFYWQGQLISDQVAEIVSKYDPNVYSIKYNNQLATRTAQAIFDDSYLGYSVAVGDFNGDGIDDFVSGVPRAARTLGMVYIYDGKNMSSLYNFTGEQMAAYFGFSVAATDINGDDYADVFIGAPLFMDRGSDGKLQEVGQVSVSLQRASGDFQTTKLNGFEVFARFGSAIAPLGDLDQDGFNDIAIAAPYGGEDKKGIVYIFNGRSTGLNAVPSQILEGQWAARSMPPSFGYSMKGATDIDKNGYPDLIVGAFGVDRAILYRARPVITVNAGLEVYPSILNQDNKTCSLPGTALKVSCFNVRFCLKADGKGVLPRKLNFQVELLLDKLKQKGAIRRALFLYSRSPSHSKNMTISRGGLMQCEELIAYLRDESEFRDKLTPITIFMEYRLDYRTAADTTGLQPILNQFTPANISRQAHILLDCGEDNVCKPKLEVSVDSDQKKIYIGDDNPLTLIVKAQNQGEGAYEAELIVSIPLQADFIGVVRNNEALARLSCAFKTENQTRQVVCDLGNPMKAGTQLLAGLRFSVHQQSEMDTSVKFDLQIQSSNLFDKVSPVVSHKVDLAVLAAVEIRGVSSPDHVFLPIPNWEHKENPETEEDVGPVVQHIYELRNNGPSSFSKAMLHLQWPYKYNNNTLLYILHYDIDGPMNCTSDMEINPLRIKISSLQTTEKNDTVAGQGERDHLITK
Chain of αvβ3 integrin (P06756 891-1048 partner limits assumed): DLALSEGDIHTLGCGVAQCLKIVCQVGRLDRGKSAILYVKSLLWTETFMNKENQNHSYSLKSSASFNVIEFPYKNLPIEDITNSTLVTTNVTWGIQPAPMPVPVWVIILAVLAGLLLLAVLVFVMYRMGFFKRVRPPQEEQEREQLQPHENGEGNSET
Chain of αvβ3 integrin (P05106 27-788): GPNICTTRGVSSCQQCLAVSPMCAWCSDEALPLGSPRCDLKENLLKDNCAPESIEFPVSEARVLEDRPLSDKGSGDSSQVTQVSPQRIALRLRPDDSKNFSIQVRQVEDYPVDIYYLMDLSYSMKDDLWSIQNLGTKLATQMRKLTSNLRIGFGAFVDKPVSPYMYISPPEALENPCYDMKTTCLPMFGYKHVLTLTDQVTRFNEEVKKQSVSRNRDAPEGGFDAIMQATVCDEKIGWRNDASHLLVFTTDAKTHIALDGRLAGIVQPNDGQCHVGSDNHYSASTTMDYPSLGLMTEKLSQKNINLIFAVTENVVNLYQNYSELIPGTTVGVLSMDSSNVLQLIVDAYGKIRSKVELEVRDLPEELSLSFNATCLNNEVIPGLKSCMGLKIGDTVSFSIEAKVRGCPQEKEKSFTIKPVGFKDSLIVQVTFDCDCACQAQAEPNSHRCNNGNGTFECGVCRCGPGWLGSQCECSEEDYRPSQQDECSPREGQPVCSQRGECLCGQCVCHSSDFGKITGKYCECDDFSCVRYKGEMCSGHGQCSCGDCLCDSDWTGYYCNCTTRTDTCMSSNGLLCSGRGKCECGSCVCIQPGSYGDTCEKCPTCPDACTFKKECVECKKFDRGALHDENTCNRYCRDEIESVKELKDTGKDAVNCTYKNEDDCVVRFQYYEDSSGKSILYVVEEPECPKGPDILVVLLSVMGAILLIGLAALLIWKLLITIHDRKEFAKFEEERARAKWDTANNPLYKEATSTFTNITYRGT

The first assay has as its target αvβ3 integrin (Homo sapiens, UniProt P05106+P06756). The assay is described as follows: Inhibition of biotinylated LXW7 binding to αvβ3-K562 cells (flow cytometry). Set-up: expressed in transfected cells; host or cells: K562 (gift of Dr. Yoshikazu Takada, UC Davis). The note with it: LXW9-92: inhibiting the binding of biotinylated LXW7 against αvβ3-K562 cells, LXW7 as internal reference. The procedure:
The apparent IC50 were calculated using Graph Prism software (≦www.graphpad.com≧).
The samples were analyzed with Coulter XL-MCL flow cytometry. The histogram and mean fluorescence intensity (MFI) were determined. The apparent Kd, IC50 were calculated using Graph Prism software (≦www.graphpad.com≧).
Take `CC(C)[C@H]1NC(=O)[C@@H](CC(=O)O)NC(=O)[C@H](CC(=O)O)NC(=O)CNC(=O)[C@H](CCCCNC(=N)N)NC(=O)CNC(=O)[C@H](N)CSSC[C@H](C(N)=O)NC1=O` [LXW51, cG-HoArg-GDdvc] (H-[dC]G[hArg]GD[dD][dV][dC]-NH2; disulfide 1-8): the IC50 – broadly, the point on the concentration scale where inhibition reaches its midpoint – was over 20000 nM. In turn, `CC(C)[C@H]1NC(=O)[C@@H](CC(=O)O)NC(=O)[C@H](CC(=O)O)NC(=O)CN(C)C(=O)[C@H](CCCNC(=N)N)NC(=O)CNC(=O)[C@H](N)CSSC[C@H](C(N)=O)NC1=O` [LXW54, cGR-Sar-Ddvc] (H-[dC]GR[Sar]D[dD][dV][dC]-NH2; disulfide 1-8) showed a half-inhibitory concentration (IC50) of over 20000 nM. The same measure, in the same setting: the same measure for `CC(C)[C@H]1NC(=O)[C@@H](CC(=O)O)NC(=O)[C@H](CC(=O)O)N(C)C(=O)CNC(=O)[C@H](CCCNC(=N)N)NC(=O)CNC(=O)[C@H](N)CSSC[C@H](C(N)=O)NC1=O` [LXW55, cGRG-(NMe)Asp-dvc] (H-[dC]GRG[NMeD][dD][dV][dC]-NH2; disulfide 1-8): over 20000 nM. Regarding `CC(C)[C@H]1NC(=O)[C@@H](CC(=O)O)NC(=O)[C@H](CC(=O)O)NC(=O)CNC(=O)[C@H](CNC(=N)N)NC(=O)CNC(=O)[C@H](N)CSSC[C@H](C(N)=O)NC1=O` [LXW58, cG-Agp-GDdvc] (H-[dC]G[Agp]GD[dD][dV][dC]-NH2; disulfide 1-8), the IC50 was over 20000 nM.

Compound `CC(C)[C@H]1NC(=O)[C@@H](CC(=O)O)NC(=O)[C@H](CCC(=O)O)NC(=O)CNC(=O)[C@H](CNC(=N)N)NC(=O)CNC(=O)[C@H](N)CSSC[C@H](C(N)=O)NC1=O` [LXW59, cG-Agp-GEdvc] (H-[dC]G[Agp]GE[dD][dV][dC]-NH2; disulfide 1-8) showed an IC50 of over 20000 nM.

Staying with this assay, now noted: LXW9-92: inhibiting the binding of biotinylated LXW7 against αvβ3-K562 cells; class symbols.
On to `CC(C)[C@H]1NC(=O)[C@@H](CC(=O)O)NC(=O)[C@H](CC(=O)O)NC(=O)CNC(=O)[C@H](CCCNC(=N)N)N(C)C(=O)CNC(=O)[C@H](N)CSSC[C@H](C(N)=O)NC1=O` [LXW53, cG-(NMe)Arg-GDdvc] (H-[dC]G[NMeR]GD[dD][dV][dC]-NH2; disulfide 1-8), for which the IC50 is under 1000 nM. Compound `CC(C)[C@H]1NC(=O)[C@@H](CC(=O)O)NC(=O)[C@H](CC(=O)O)NC(=O)CNC(=O)[C@H](CCCNC(=N)N)NC(=O)CNC(=O)[C@H](NC(=O)CCN)CSSC[C@H](C(N)=O)NC1=O` [LXW56, 3-amino propanoyl-cGRGDdvc] (H-[βAla][dC]GRGD[dD][dV][dC]-NH2; disulfide 2-9) had an IC50 of under 1000 nM. Same read-out and setting: to `CC(C)[C@H]1NC(=O)[C@@H](CC(=O)O)NC(=O)[C@H](CC(=O)O)NC(=O)CNC(=O)[C@H](CCCNC(=N)N)NC(=O)CNC(=O)[C@H](NC(=O)CCC(=O)NCCOCCOCCN)CSSC[C@H](C(N)=O)NC1=O` [LXW57, (Ebes)-cGRGDdvc] ({NH(CH2CH2O)2CH2CH2NH2-Suc}-[dC]GRGD[dD][dV][dC]-NH2; disulfide 1-8) belongs under 1000 nM; to `N=C(N)NCCC[C@@H]1NC(=O)CNC(=O)[C@H](N)CSSC[C@@H](C(N)=O)NC(=O)[C@@H](CC(=O)O)NC(=O)[C@@H](CO)NC(=O)[C@H](CC(=O)O)NC(=O)CNC1=O` [LXW62, cGRGDsdC] (H-[dC]GRGD[dS][dD]C-NH2; disulfide 1-8), over 10000 nM.

Take `N=C(N)NCCC[C@@H]1NC(=O)CNC(=O)[C@H](N)CSSC[C@H](C(N)=O)NC(=O)[C@@H](Cc2cccc3ccccc23)NC(=O)[C@@H](CC(=O)O)NC(=O)[C@H](CC(=O)O)NC(=O)CNC1=O` [LXW64, cGRGDd-DNal1-c]: the half-inhibitory concentration (IC50) is under 1000 nM. On the same count and under the same terms, to `N=C(N)NCCC[C@@H]1NC(=O)CNC(=O)[C@H](N)CSSC[C@H](C(N)=O)NC(=O)[C@@H](Cc2ccc3ccccc3c2)NC(=O)[C@@H](CC(=O)O)NC(=O)[C@H](CC(=O)O)NC(=O)CNC1=O` [LXW65, cGRGDd-DNal2-c] belongs under 1000 nM; to `N=C(N)NCCC[C@@H]1NC(=O)CNC(=O)[C@H](N)CSSC[C@H](C(N)=O)NC(=O)[C@@H](Cc2ccsc2)NC(=O)[C@@H](CC(=O)O)NC(=O)[C@H](CC(=O)O)NC(=O)CNC1=O` [LXW66, cGRGDd-D3Thi-c], under 1000 nM; to `N=C(N)NCCC[C@@H]1NC(=O)CNC(=O)[C@H](N)CSSC[C@H](C(N)=O)NC(=O)[C@@H](Cc2cccs2)NC(=O)[C@@H](CC(=O)O)NC(=O)[C@H](CC(=O)O)NC(=O)CNC1=O` [LXW67, cGRGDd-D2Thi-c], under 1000 nM.

As to `N=C(N)NCCC[C@@H]1NC(=O)CNC(=O)[C@H](N)CSSC[C@H](C(N)=O)NC(=O)[C@@H](Cc2c[nH]c3ccccc23)NC(=O)[C@@H](CC(=O)O)NC(=O)[C@H](CC(=O)O)NC(=O)CNC1=O` [LXW68, cGRGDdwc] (H-[dC]GRGD[dD][dW][dC]-NH2; disulfide 1-8), the IC50 was under 1000 nM. On the same count and under the same terms, the same measure for `N=C(N)NCCC[C@@H]1NC(=O)CNC(=O)[C@H](N)CSSC[C@H](C(N)=O)NC(=O)[C@@H](Cc2cscn2)NC(=O)[C@@H](CC(=O)O)NC(=O)[C@H](CC(=O)O)NC(=O)CNC1=O` [LXW69, cGRGDd-DTha-c]: 1000 to 10000 nM; for `N=C(N)NCCC[C@@H]1NC(=O)CNC(=O)[C@H](N)CSSC[C@H](C(N)=O)NC(=O)[C@@H]2CC[C@H](c3ccccc3)N2C(=O)[C@@H](CCCNC(N)=O)NC(=O)[C@H](CC(=O)O)NC(=O)CNC1=O` [LXW70, cGRGD-DCit-Ppca-c] (H-[dC]GRGD[dCit][Pro(5R-Ph)][dC]-NH2; disulfide 1-8): over 10000 nM. In turn, `N=C(N)NCCC[C@@H]1NC(=O)CNC(=O)[C@H](N)CSSC[C@H](C(N)=O)NC(=O)[C@@H]2CC[C@H](c3ccccc3)N2C(=O)[C@@H](CCC(=O)O)NC(=O)[C@H](CC(=O)O)NC(=O)CNC1=O` [LXW71, cGRGDe-Ppca-c] (H-[dC]GRGD[dE][Pro(5R-Ph)][dC]-NH2; disulfide 1-8) showed an IC50 of 1000 to 10000 nM. `N=C(N)NCCC[C@@H]1NC(=O)CNC(=O)[C@H](N)CSSC[C@H](C(N)=O)NC(=O)[C@@H](Cc2csc3ccccc23)NC(=O)[C@@H](CCCNC(N)=O)NC(=O)[C@H](CC(=O)O)NC(=O)CNC1=O` [LXW73, cGRGD-DCit-DBta-c] (H-[dC]GRGD[dCit][dBta][dC]-NH2; disulfide 1-8) showed a half-maximal inhibitory concentration (IC50) of 1000 to 10000 nM. With `CC(C)C(=O)N[C@@H]1CSSC[C@H](C(N)=O)NC(=O)[C@@H](C(C)C)NC(=O)[C@@H](CC(=O)O)NC(=O)[C@H](CC(=O)O)NC(=O)CNC(=O)[C@H](CCCNC(=N)N)NC(=O)CNC1=O` [LXW76, isobutyryl-cGRGDdvc] (Isobutyryl-[dC]GRGD[dD][dV][dC]-NH2; disulfide 1-8), the IC50 is under 1000 nM.

In turn, `CCCCC(=O)N[C@@H]1CSSC[C@H](C(N)=O)NC(=O)[C@@H](C(C)C)NC(=O)[C@@H](CC(=O)O)NC(=O)[C@H](CC(=O)O)NC(=O)CNC(=O)[C@H](CCCNC(=N)N)NC(=O)CNC1=O` [LXW77, valeryl-cGRGDdvc] (Pentanoyl-[dC]GRGD[dD][dV][dC]-NH2; disulfide 1-8) yielded an IC50 of 1000 to 10000 nM. As to `CC(C)[C@H]1NC(=O)[C@@H](CC(=O)O)NC(=O)[C@H](CC(=O)O)NC(=O)CNC(=O)[C@H](CCCNC(=N)N)NC(=O)CNC(=O)[C@H](NC(=O)CC2CCCCC2)CSSC[C@H](C(N)=O)NC1=O` [LXW78, cyclohexyl acetyl-cGRGDdvc] (Cyclohexylacetyl-[dC]GRGD[dD][dV][dC]-NH2; disulfide 1-8), the IC50 lay in the range of 1000 to 10000 nM. Same read-out and setting: the same measure for `CC(C)[C@H]1NC(=O)[C@@H](CC(=O)O)NC(=O)[C@H](CC(=O)O)NC(=O)CNC(=O)[C@H](CCCNC(=N)N)NC(=O)CNC(=O)[C@H](NC(=O)CCc2ccccc2)CSSC[C@H](C(N)=O)NC1=O` [LXW80, 3-phenyl propionyl-cGRGDdvc] (Hydrocinnamoyl-[dC]GRGD[dD][dV][dC]-NH2; disulfide 1-8): under 1000 nM; for `CC(C)[C@H]1NC(=O)[C@@H](CC(=O)O)NC(=O)[C@H](CC(=O)O)NC(=O)CNC(=O)[C@H](CCCNC(=N)N)NC(=O)CNC(=O)[C@H](NC(=O)Cc2ccc(Cl)cc2)CSSC[C@H](C(N)=O)NC1=O` [LXW81, p-chlorophenyl acetyl-cGRGDdvc] ({Phenylacetyl(4-Cl)}-[dC]GRGD[dD][dV][dC]-NH2; disulfide 1-8): 1000 to 10000 nM. Still for that read-out and setting: the same measure for `CC(C)[C@H]1NC(=O)[C@@H](CC(=O)O)NC(=O)[C@H](CC(=O)O)NC(=O)CNC(=O)[C@H](CCCNC(=N)N)NC(=O)CNC(=O)[C@H](NC(=O)c2ccc([N+](=O)[O-])cc2)CSSC[C@H](C(N)=O)NC1=O` [LXW82, 4-nitrobezoyl-cGRGDdvc] ({Benzoyl(4-NO2)}-[dC]GRGD[dD][dV][dC]-NH2; disulfide 1-8): 1000 to 10000 nM; for `CC(C)[C@H]1NC(=O)[C@@H](CC(=O)O)NC(=O)[C@H](CC(=O)O)NC(=O)CNC(=O)[C@H](CCCNC(=N)N)NC(=O)CNC(=O)[C@H](NC(=O)c2cc(O)cc(O)c2)CSSC[C@H](C(N)=O)NC1=O` [LXW83, 3,5-dihydroxy beznoyl-cGRGDdvc] ({Benzoyl(3,5-(OH)2)}-[dC]GRGD[dD][dV][dC]-NH2; disulfide 1-8): under 1000 nM; for `CC(C)[C@H]1NC(=O)[C@@H](CC(=O)O)NC(=O)[C@H](CC(=O)O)NC(=O)CNC(=O)[C@H](CCCNC(=N)N)NC(=O)CNC(=O)[C@H](NC(=O)c2ccc(-c3ccccc3)cc2)CSSC[C@H](C(N)=O)NC1=O` [LXW84, biphenyl-4-carbonyl-cGRGDdvc] ({Benzoyl(4-Ph)}-[dC]GRGD[dD][dV][dC]-NH2; disulfide 1-8): under 1000 nM. Consider `CC(C)[C@H]1NC(=O)[C@@H](CC(=O)O)NC(=O)[C@H](CC(=O)O)NC(=O)CNC(=O)[C@H](CCCNC(=N)N)NC(=O)CNC(=O)[C@H](NC(=O)c2ccc(C(F)(F)F)cc2)CSSC[C@H](C(N)=O)NC1=O` [LXW85, 4-(trifluoromethyl)benzoyl-cGRGDdvc] ({Benzoyl(4-CF3)}-[dC]GRGD[dD][dV][dC]-NH2; disulfide 1-8), for which the IC50 was under 1000 nM. `Cc1nc(C(=O)N[C@@H]2CSSC[C@H](C(N)=O)NC(=O)[C@@H](C(C)C)NC(=O)[C@@H](CC(=O)O)NC(=O)[C@H](CC(=O)O)NC(=O)CNC(=O)[C@H](CCCNC(=N)N)NC(=O)CNC2=O)cs1` [LXW86, 2-Methylthiazole-4-carbonyl-cGRGDdvc] (X3-[dC]GRGD[dD][dV][dC]-NH2; disulfide 1-8) had an IC50 of under 1000 nM.

(Values after patent US9073974B2, “RGD-containing cyclic peptides” (The Regents of the University of California, priority 2009, dated 2015).)
